“And” between values parts separate entries of the source, which are not always exact repeats. Equal values may be shown once.
Tested on: Male Sprague Dawley rats
Test: Novelty Suppressed Feeding Test (NSFT) with home cage feeding control
Format: in vivo, rat
Protocol: Behavioral Analysis Using the Novelty Suppressed Feeding Test (NSFT): The NSFT was conducted as previously described (Warner-Schmidt, J. L. & Duman, R. S. PNAS 104(11): 4647-52 (2007)). Rats were fasted in their home cages for 20 hr and then placed in a Plexiglas open field (76.5 cm×76.5 cm×40 cm) with a small amount of food in the center. Animals were allowed to explore the open field for 8 min and the latency to feed (s) was recorded.
Chronic Unpredictable Stress (CUS) Conditions: Rats were exposed to a variable sequence of 12 unpredictable stressors, preventing habituation as described (Li, N. et al., Biol Psychiatry 69(8): 754-61 (2011)). The following twelve stressors were applied (2 per day, for 25 days): cage rotation, light on, light off, cold stress, isolation, swim stress, food and water deprivation, wet bedding, stroboscope, cage tilt, odor exposure and group housing. The animals in non-stressed (NS) groups were housed normally without the application of external stressors. Both NS and CUS rats were handled and weighed weekly.
Study Design. Thirty-two (32) male Sprague Dawley Male rats weighing between 175 and 200 g were randomized into 4 study groups (n=8/treatment group), following a 5-day acclimation period. On study day 0, rats received a single dose of either saline (Sal) or ketamine (Ket) in Groups 1 and 2, respectively, by intraperitoneal injection (i.p.). The rats in Group 3 and 4 received a single dose of the NV-5138 vehicle (Veh, 0.5% Methylcellulose/0.1% Tween-80) or NV-5138 (160 mg/kg), respectively, by oral gavage. All rats were subjected to the FUST on day 1, 24 hrs after dosing. On day 2, 48 hrs after dosing, the LMA of all rats was measured in an open field. Rats were then fasted for 20 hrs and subjected to the NSFT, 72 hrs post-dose.
Study Design: Fifty-six (56) male rats weighing between 175 and 200 g were randomized into 4 study groups (n=14/group), following a 5-day acclimation period. On study day minus 20, two groups of rats were subjected to CUS for 25 days and two groups of rats were housed normally serving as the NS group. On the day 21 of the CUS protocol, rats received a single dose of either Veh or NV-5138 (160 mg/kg) by oral gavage (day 0). The SPT and NSFT were performed 24 and 48 hrs post-administration (days 1 and 2), respectively. Upon completion of the behavioral tests, after 25 days of the CUS protocol a second dose of NV-5138 or Veh was administered on day 5 and rats were sacrificed 24 hrs later by conscious decapitation. Crude synaptosomes were prepared from the PFC and the synaptic proteins, GluR1 and PSD95 were quantitated by WB.
Study Design. Twenty (20) male rats weighing between 175 and 200 g were randomized into 3 study groups (n=6-7/group), following a 5-day acclimation period. All rats were surgically implanted with bilateral IT cannulas in the PFC 2 weeks prior to dosing. […] Thirty minutes following the intrathecal infusions, either NV-5138 vehicle (Veh-NV, 0.5% methylcellulose/0.1% Tween-80) or NV-5138 (160 mg/kg) was administered by oral gavage. Each treatment group was assessed at the designated time following oral dosing in FST 24 hrs (day 1) LMA 48 hrs (day 2) and the NSFT 72 hrs (day 3 following a 20 hr period of fasting). LMA was measured to rule out overall changes in generally locomotor activity. The study design is presented in Table 11 with timeline of surgical procedures, test article administration and behavioral tests is provided in FIG. 20
Study Design. Forty-eight (48) male rats weighing between 175 and 200 g were randomized into 6 study groups (n=8/group), following a 5-day acclimation period. A single dose of all test articles was administered on day 0 and the behavioral tests were performed 3, 7 and 10 days later. Groups 1 and 2 were dosed on day 0 with NV-5138 (160 mg/kg by oral gavage) and Ket (10 mg/kg by i.p. injection), respectively and subjected to a FST on day 3. […]

SMILES	decrease in the latency to feed (NSFT) vs Veh (Example A, NV-5138 160 mg/kg oral single dose, 72 hrs post-dose, p<0.01) [%]	NSFT latency to feed (Example E, CUS rats, NV-5138 160 mg/kg oral, 48 hrs after treatment, p<0.0001 vs CUS Veh) [s]	NSFT latency to feed (Example E, non-stressed (NS) rats, NV-5138 160 mg/kg oral, 48 hrs after treatment, p<0.01 vs Veh) [s]	NSFT latency to feed (Example F, Veh-R IT infusion then NV-5138 160 mg/kg oral, 72 hrs) [s]	decrease in NSFT latency to feed vs Veh-R/Veh-NV (Example F, Veh-R IT infusion then NV-5138 160 mg/kg oral, 72 hrs, p<0.05, 160 mg/kg)	NSFT latency to feed, R/NV-5138 vs Veh-R/Veh-NV (Example F, rapamycin (R, 0.01 nmol) IT infusion into PFC 30 min before NV-5138 160 mg/kg oral, 72 hrs)	NSFT vs Veh (Example G, NV-5138 160 mg/kg oral single dose, 10 days post-dose)	NSFT (Example I, NV-5138 80 mg/kg oral daily for 7 days, day 9, 72 hrs post-last dose)	decrease in the latency to feed (NSFT) vs Sal (Example A, Ket 10 mg/kg i.p. single dose, 72 hrs post-dose, p<0.01) [%]	NSFT vs Sal (Example G, Ket 10 mg/kg i.p. single dose, 10 days post-dose)
CC(C)(C[C@H](N)C(=O)O)C(F)F [NV-5138]	36	520.1 ± 40.35	430.6 ± 25.3	510 ± 50	46% and 32%	lack of significant effect on latency to feed	No significant difference	Significant effects		
CNC1(c2ccccc2Cl)CCCCC1=O (stereo not shown) [Ket, ketamine, reference compound]									31	No significant difference
